Laboratory results published in paper PMC9150179, “Clerodane Diterpenes from Casearia corymbosa as Allosteric GABAA Receptor Modulators” (Journal of Natural Products, 2022).

Experiments:
[1] = target: GABAA receptor with the α1β2γ2 subunit composition (Homo sapiens, UniProt P14867+P18507+P47870); test: FLIPR assay on CHO cells stably expressing GABAA receptors; assay type: cell-based; details: for % activation at single concentration: 20 μM compound, 200 μM GABA = 100%
Experimental: Chinese hamster ovary (CHO) cells stably expressing the GABAA receptor with the α1β2γ2 subunit composition were passaged following an established protocol.[15],[16] The Chinese hamster ovary (CHO) cell line stably expressing the α1β2γ2 GABAA receptor subtype was cloned by B’SYS. Cells were cultured in a DMEM F-12 nutrient mixture supplemented with 10% FBS and 1% penicillin/streptomycin, under antibiotic pressure with 200 μg/mL of hygromycin B, 5 μg/mL of puromycin, and 100 μg/mL of zeocin. Cells were incubated in humidified air at 37 °C and 5% CO2, until 80–90% cell confluency. The passage numbers used in this study were from 10 to 30. Briefly, cells of ca. 80–90% confluency were seeded in a 96-well black-walled plate at a density of 60 000 cells/well in 100 μL of culture medium. The plate was incubated in humidified air at 37 °C and 5% CO2 for 24 h to allow cells to adhere. Then, 100 μL of FLIPR red dye solution (10.4 mL of assay buffer and one vial of red FLIPR assay reagent) was added to each well. The plate was further incubated for 30 min to allow the dye to penetrate into the cell membrane (assay plate). During the incubation time, a compound plate (clear 96-well plate) with controls, extracts, microfractions, compounds, and blanks was prepared (200 μL/well). Test solutions of extracts, microfractions, and compounds were prepared in buffer (consisting of 10% HBSS and 2% HEPES in sterilized H2O) and DMSO.
For the extract library screening, 2 μL of a 10 mg/mL DMSO stock solution of the extracts was added to 198 μL of buffer and transferred into the compound plate. The final test concentration for extracts was 20 μg/mL, with a final DMSO concentration in the assay of 0.1%. For extracts tested, active (>35% potentiation) serial dilutions were prepared from the stock solution to obtain final test concentrations of 0.16, 0.31, 0.63, 1.25, 2.50, 5.00, 10.00, and 20.00 μg/mL.
To test the pure compounds, stock solutions of 20 mM in DMSO were prepared. Compounds were assayed at a final concentration range of 0.16 to 20.00 μM (8× dilution series) or alternatively from 0.01 to 20.00 μM (12× dilution series). Aliquots of 200 μL from each dilution were transferred into wells of the compound plate and tested.
A series of controls was included in each assay. GABA at 200 μM was used to represent 100% activation of the receptor, while GABA at 2 μM represented the minimum activation (EC10). The positive control was diazepam at 20 μM in the presence of GABA at 2 μM, and buffer with 0.1% DMSO was used as a blank. GABA solutions (2 and 200 μM) were prepared from a 100 mM stock solution. In order to achieve a final test concentration of 20 μM diazepam in the assay plate, a 100 μM working solution was prepared from a stock solution (1 mg/mL in MeOH).
All test solutions were placed in the appropriate position in the compound plate (200 μL). Right after the final incubation period of the assay plate, the compound and assay plates were placed into a FlexStation 3 (Molecular Devices). The FlexStation parameters used in this study were as previously published.[14] Fluorescence was recorded for 500 s. For the first 25 s, the background fluorescence of the assay plate was measured (background signal). At 25 s, 50 μL of the test solutions (dilutions from compounds, extracts, microfractions, diazepam, and blanks) was transferred from the compound plate into the assay plate. The fluorescence was then recorded until 295 s. At 295 s, 25 μL of the GABA solutions (final concentration of 2 or 200 μM) was transferred into each well of the assay plate, and fluorescence was recorded until 500 s. The change in fluorescence intensity measured between 270 and 330 s was used for the calculation of percentage activation.

[2] = target: T1, GABAA receptors α1β2γ2S (Homo sapiens, UniProt P14867+P18507+P47870); test: Two-microelectrode voltage clamp assay with Xenopus laevis oocytes (α1β2γ2S); assay type: cell-based
T1 construct: expressed in transfected cells; host or cells: Xenopus laevis oocytes, cRNA injection
Experimental: (§1) Recombinant GABAA receptors (α1β2γ2s and α1β2) were expressed in X. laevis oocytes by cRNA injection, as previously described.[37] Two-microelectrode voltage clamp measurements were performed between days 1 and 5 after injection of cRNA of the respective subunits, using a TURBO TEC 03X amplifier (npi Electronic) at a holding potential of −70 mV and pCLAMP 10 data acquisition software (Molecular Devices). The bath solution contained 90 mM NaCl, 1 mM KCl, 1 mM MgCl2, 1 mM CaCl2, and 5 mM HEPES (pH 7.4), and the electrode filling solution contained 2 M KCl. Test solutions (100 μL) were applied to the oocytes at a speed of 300 μL/sec by means of the ScreeningTool (npi electronic) automated fast perfusion system. GABA EC3–7 was determined through a concentration–response experiment with GABA. A stock solution of compound 8 (100 mM) in DMSO was diluted with a bath solution containing GABA EC3–7 to obtain appropriate working solutions according to a validated protocol. Enhancement of the IGABA was defined as (I(GABA+Comp)/IGABA) – 1, where I(GABA+Comp) is the current response in the presence of a given compound, and IGABA is the control of the GABA-induced chloride current. Emax reflects the maximal IGABA enhancement. Concentration–response curves were generated, and the data were fitted by nonlinear regression analysis using Origin Software (OriginLab Corporation, USA) and are given as the means ± SEM of at least three oocytes from ≥2 batches. Diazepam (Sigma) and flumazenil (Sigma-Aldrich) were used as positive controls at 2 μM.

[3] = target: T2, GABAA receptors α1β2 (Homo sapiens, UniProt P14867+P47870); test: Two-microelectrode voltage clamp assay with Xenopus laevis oocytes (α1β2); assay type: cell-based; details: α1β2, in the presence of GABA EC3–7, n = 3
T2 construct: expressed in transfected cells; host or cells: Xenopus laevis oocytes, cRNA injection
T2 sequence (P14867 28-456): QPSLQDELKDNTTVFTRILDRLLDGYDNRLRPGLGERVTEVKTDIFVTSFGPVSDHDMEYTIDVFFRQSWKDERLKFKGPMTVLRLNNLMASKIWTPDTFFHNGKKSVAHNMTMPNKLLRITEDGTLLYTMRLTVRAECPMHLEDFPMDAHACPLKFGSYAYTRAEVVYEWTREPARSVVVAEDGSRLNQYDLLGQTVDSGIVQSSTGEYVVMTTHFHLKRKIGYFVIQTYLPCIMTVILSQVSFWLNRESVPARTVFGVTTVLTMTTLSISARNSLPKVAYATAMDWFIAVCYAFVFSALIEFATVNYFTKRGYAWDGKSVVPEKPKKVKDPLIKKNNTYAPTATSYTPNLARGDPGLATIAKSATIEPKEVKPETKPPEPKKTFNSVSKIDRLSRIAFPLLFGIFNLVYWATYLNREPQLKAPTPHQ
T2 sequence (P47870 25-512 limits assumed): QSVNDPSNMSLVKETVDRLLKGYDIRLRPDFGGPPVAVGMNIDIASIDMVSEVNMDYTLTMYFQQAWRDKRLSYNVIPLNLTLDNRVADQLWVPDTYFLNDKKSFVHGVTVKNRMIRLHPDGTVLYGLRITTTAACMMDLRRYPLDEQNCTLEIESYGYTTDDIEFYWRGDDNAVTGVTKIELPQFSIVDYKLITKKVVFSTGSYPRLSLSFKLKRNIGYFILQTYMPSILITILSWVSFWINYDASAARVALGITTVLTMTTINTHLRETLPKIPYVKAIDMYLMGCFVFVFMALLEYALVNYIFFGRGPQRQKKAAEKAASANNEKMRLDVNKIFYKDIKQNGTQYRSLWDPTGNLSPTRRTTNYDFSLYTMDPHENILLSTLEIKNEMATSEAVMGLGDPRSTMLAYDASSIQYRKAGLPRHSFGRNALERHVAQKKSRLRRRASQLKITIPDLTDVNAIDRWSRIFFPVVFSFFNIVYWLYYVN
Experimental: as §1, with “Concentration–response curves were generated, and the data were fitted by nonlinear regression analysis using Origin Software (OriginLab Corporation, USA) and are given as the means ± SEM of at least three oocytes from ≥2 batches. Diazepam (Sigma) and flumazenil (Sigma-Aldrich) were used as positive controls at 2 μM.” left out

[4] = tested on: GABAA receptors; design: method as in PMID 17585957; details: Xenopus oocyte assay; cited from earlier work

GABAA receptor with the α1β2γ2 subunit composition, sequence (P18507 40-475, one chain of several): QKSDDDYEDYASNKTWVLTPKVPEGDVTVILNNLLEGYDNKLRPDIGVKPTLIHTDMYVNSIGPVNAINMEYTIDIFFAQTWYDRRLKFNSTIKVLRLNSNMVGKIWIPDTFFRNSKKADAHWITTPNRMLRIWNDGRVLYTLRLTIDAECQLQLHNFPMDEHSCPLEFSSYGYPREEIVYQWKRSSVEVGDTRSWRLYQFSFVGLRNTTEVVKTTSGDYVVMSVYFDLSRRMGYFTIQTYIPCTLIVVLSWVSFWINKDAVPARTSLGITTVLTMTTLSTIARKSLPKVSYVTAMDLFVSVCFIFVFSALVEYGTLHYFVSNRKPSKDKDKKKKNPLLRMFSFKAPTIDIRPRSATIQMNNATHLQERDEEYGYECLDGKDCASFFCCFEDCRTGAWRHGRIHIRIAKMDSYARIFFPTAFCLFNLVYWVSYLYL
T1 sequence (P18507 40-467 isoform P18507-1 limits assumed, one chain of several): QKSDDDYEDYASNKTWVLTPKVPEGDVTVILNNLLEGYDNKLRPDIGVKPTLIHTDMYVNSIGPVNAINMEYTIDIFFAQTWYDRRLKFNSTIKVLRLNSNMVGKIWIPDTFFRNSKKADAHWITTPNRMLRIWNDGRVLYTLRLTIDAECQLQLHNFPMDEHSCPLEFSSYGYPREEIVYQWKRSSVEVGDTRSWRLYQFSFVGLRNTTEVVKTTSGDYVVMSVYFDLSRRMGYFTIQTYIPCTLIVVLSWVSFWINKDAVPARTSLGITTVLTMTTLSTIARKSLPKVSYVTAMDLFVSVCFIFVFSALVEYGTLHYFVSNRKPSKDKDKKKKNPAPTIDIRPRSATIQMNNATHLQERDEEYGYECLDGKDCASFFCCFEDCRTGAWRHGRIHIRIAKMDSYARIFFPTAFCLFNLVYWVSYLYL

Question: With `C=C/C(C)=C/C[C@]1(C)[C@H](C)C[C@H](O)[C@@]2(C=O)C(C=O)=C[C@@H](OC(C)=O)C[C@@H]12` [Compound 1, (5S,8R,9R,10S)-2S-Acetoxy-6S-hydroxyclerod-3,12,14-trien-18,19-dial] as the molecule, how does the “% activation at single concentration” value ([1]; in the presence of 2 μM GABA) read?
Answer: ~40%

Question: Which “% activation at single concentration” value ([1]; in the presence of 2 μM GABA) does the source give for `C=C/C(C)=C/C[C@]1(C)[C@H](C)C[C@H](O)[C@]23C(=C[C@@H](OC(C)=O)C[C@@H]12)[C@@H](OC)O[C@H]3OC(C)=O` [Compound 2, Graveospene H] here?
Answer: no discernible activity

Question: For `C=C/C(C)=C/C[C@]1(C)[C@H](C)C[C@H](O)[C@]23C(=C[C@@H](OC(C)=O)C[C@@H]12)[C@@H](OC(C)=O)O[C@H]3OC(C)=O` [Compound 3, Corymbotin D], which “% activation at single concentration” value ([1]; in the presence of 2 μM GABA) is on record?
Answer: significantly enhanced

Question: With `C=C/C(C)=C/C[C@]1(C)[C@H](C)C[C@H](O)[C@]23C(=C[C@H](OC(=O)C(=C)C)C[C@@H]12)[C@@H](OC(C)=O)O[C@H]3OC(C)=O` [Compound 4, Corymbotin F] as the molecule, how does the “% activation at single concentration” value ([1]; in the presence of 2 μM GABA) read?
Answer: no discernible activity

Question: Which “% activation at single concentration” value ([1]; in the presence of 2 μM GABA) does the source give for `C=C/C(C)=C/C[C@]1(C)[C@H](C)C[C@H](OC)[C@@]2(C=O)C(C=O)=C[C@@H](OC(C)=O)C[C@@H]12` [Compound 5, (5S,8R,9R,10S)-2S-Acetoxy-6S-methoxyclerod-3,12,14-trien-18,19-dial] here?
Answer: ~40%

Question: With `C=C/C(C)=C/C[C@]1(C)[C@H](C)C[C@H](O)[C@]23C(=C[C@H](OC(=O)C(=C)C)C[C@@H]12)[C@@H](OC)O[C@H]3OC(C)=O` [Compound 6, (2R)-2-Methylpropenoyloxy-6S-hydroxy-18S-methoxy-19S-acetoxyzuelanin] as the molecule, how does the “% activation at single concentration” value ([1]; in the presence of 2 μM GABA) read?
Answer: no discernible activity

Question: Which results are given for `C=C/C(C)=C/CC1(C)C(C)CC(OC(C)=O)C23C(=CC(OC(C)=O)CC12)C(OC(C)=O)OC3OC(C)=O` [Compound 7, (2S,6S,18S,19S)-Tetraacetoxyzuelanin]?
Answer: % activation at single concentration ([1]; in the presence of 2 μM GABA): significantly enhanced; EC50 ([1]; in the presence of 2 μM GABA, CHO cells α1β2γ2, read-out: EC50, positive allosteric modulation of the GABA signal): 4.6 µM

Question: For `C=C/C(C)=C/C[C@]1(C)[C@H](C)C[C@H](OC)[C@]23C(=C[C@@H](OC(C)=O)C[C@@H]12)[C@@H](OC(C)=O)O[C@H]3OC(C)=O` [Compound 8, Corimbotin A], which “% activation at single concentration” value ([1]; in the presence of 2 μM GABA) is on record?
Answer: significantly enhanced

Question: What about the “activation by 8 in the presence of flumazenil” value ([1]; 8 (5 μM) with flumazenil 0.001–10 μM, 2 μM GABA) of the same molecule?
Answer: not abrogated

Question: What about the combination with allopregnanolone ([1]; 8 (0.5–4.0 μM) with allopregnanolone (0.25 μM), 2 μM GABA) of the same molecule?
Answer: additive effects

Question: What about the combination with diazepam ([1]; 8 (0.5–8 μM) with diazepam (2 μM), 2 μM GABA) of the same molecule?
Answer: additive effect

Question: And the “potentiation of the GABA signal by etazolate in combination with 8” value ([1]; etazolate (2 μM) with 8 (0.5–8 μM), 2 μM GABA)?
Answer: further increased

Question: What about the “IGABA stimulation by 8 in the presence of flumazenil” value ([2]; 8 (50 μM), flumazenil (2 μM)) of the same molecule?
Answer: not prevented

Question: What about the EC50 ([2]; α1β2γ2S, in the presence of GABA EC3–7, n = 3, read-out: EC50, potentiation of GABA-induced chloride currents (IGABA)) of the same molecule?
Answer: 43.6 µM

Question: What about the Emax ([2]; α1β2γ2S, in the presence of GABA EC3–7, n = 3, read-out: Emax, maximal IGABA enhancement) of the same molecule?
Answer: 809%

Question: What about the EC50 ([3]; read-out: EC50, potentiation of GABA-induced chloride currents (IGABA)) of the same molecule?
Answer: 57.6 µM

Question: What about the Emax ([3]; read-out: Emax, maximal IGABA enhancement) of the same molecule?
Answer: 534%

Question: With `C=C/C(C)=C/C[C@]1(C)[C@H](C)C[C@H](OC)[C@]23C(=C[C@H](OC(=O)CC)C[C@@H]12)[C@@H](OC(C)=O)O[C@H]3OC(C)=O` [Compound 9, (2R)-Propanoyloxy-(6R)-methoxy-18R,19S-diacetoxyzuelanin] as the molecule, how does the “% activation at single concentration” value ([1]; in the presence of 2 μM GABA) read?
Answer: no discernible activity

Question: With `CN1C(=O)CN=C(c2ccccc2)c2cc(Cl)ccc21` [diazepam] as the molecule, how does the “maximal potentiation (Emax)” value [4] read?
Answer: ~200%

Question: Which “activation of the GABA signal” value ([1]; concentrations up to 640 mM, in presence of 2 μM GABA) does the source give for `CCO` [ethanol, reference compound] here?
Answer: no activation

Question: With `CCOC(=O)c1ncn2c1CN(C)C(=O)c1cc(F)ccc1-2` [flumazenil, reference compound] as the molecule, how does the “effect on potentiation of the GABA signal by diazepam” value ([1]; diazepam 2 μM, flumazenil 0.001–100 μM, concentration-dependent) read?
Answer: abolished

Question: With “pregnenolone sulfate [PREGS, reference compound]” as the molecule, how does the “effect of PREGS on GABA signal with 8, highest concentration” value ([1]; 8 (10 μM) with PREGS 10 μM, 2 μM GABA) read?
Answer: decrease of the GABA signal

Question: What about the “effect of PREGS on GABA signal with 8, lower concentrations” value ([1]; 8 (10 μM) with PREGS at lower concentrations (<10 μM), 2 μM GABA) of the same molecule?
Answer: no effect

Question: And the “effect on activation by allopregnanolone” value ([1]; allopregnanolone 0.5 μM, PREGS 0.001–100 μM)?
Answer: abrogated
